Data on 1 molecule can be found in US10639376B2, “Pharmaceutical compositions having improved storage stability” (ALKERMES PHARMA IRELAND LIMITED, priority 2012, dated 2020).

For orientation: pKa means the pH at which an ionisable group is half protonated.

A short description of this data set: Solubility of Compound 1 in vehicles with various amounts of sorbitan monolaurate. The note with it: from trend of Compound 1 concentration as a function of pH at a given SML concentration; read-out: estimated pKa. The class given is physicochemical. The protocol:
The solubility of Compound 1 was determined in vehicles containing 10 mM pH 7 phosphate buffer, 0.2% polysorbate 20 (PS), 0.8% saline, and various amounts of sorbitan monolaurate (SML). […] At a given SML concentration, the trend of Compound 1 concentration as a function of pH is consistent with an estimated pKa of ˜7. […] The degradation of dissolved Compound 1 was further followed in the drug vehicle containing 0.50% SML and 0.2% PS.

As to `CCCCCCCCCCCC(=O)OCN1C(=O)CCc2ccc(OCCCCN3CCN(c4cccc(Cl)c4Cl)CC3)cc21` [Compound 1], the pKa is approximately 7.
